This note sets out measurements from paper PMC8279406 (Journal of Medicinal Chemistry, 2021).

For orientation: IC50 means the midpoint of a concentration-inhibition curve. Lower therefore signals higher potency.

Test [1] has as its system recombinant K26GFP HSV-1 strain. The experiment in a line: Infection neutralization assay, transfected J cells, K26GFP HSV-1, EGFP expression. Type of test: cell-based. Particulars: all of the examined J cell samples, 700 μM. The source says: To this aim, we selected the J cells, which are negative for gD receptors and therefore cannot be infected by HSV-1 unless gD cognate receptors (i.e., nectin1) are transgenically expressed. […] In particular, J cells were transfected with low amounts of nectin1 plasmid, plus either αvβ6 or αvβ8 integrin plasmid or both, and then infected with the recombinant K26GFP HSV-1 strain. Indeed, the capsid protein ICP26 of this strain is fused to the green fluorescent protein (GFP),[60] whose cellular expression can be used to measure the viral infection. Thus, the K26GFP entry in J cells after compound treatment was evaluated using fluorescent microscopy (Figure 4A–T), and the enhanced green fluorescent protein (EGFP) expression was quantified using flow cytometry as the mean fluorescence intensity (MFI) of gated cells (Figure 4U). […] In parallel, we also evaluated the HSV infection in J cells expressing nectin1 plus either αvβ6 or αvβ8 alone.
J cells were transfected with a low amount (75 ng of DNA/24 well) of nectin1 alone (A–E), or with the same amount of nectin1 plus αvβ6 integrin (300 ng DNA/24 well) (F–J), or plus αvβ8 integrin (300 ng DNA/24 well) (K–O), or plus both the integrin receptors (P–T). […] The cells were infected with K26GFP. The nonpenetrated virus was inactivated by an acid wash. Infectivity was measured at 16 h after infection as EGFP expression. (A)–(T) panels show the EGFP expression in each sample for a typical experiment. (U) K26GFP infection was quantified as EGFP protein expression in the flow cytometry assay as the mean fluorescence intensity (MFI) of gated cells. Histograms represent the average of triplicates ± SD.
In other experiments, J cells were transfected with low amounts of plasmids encoding nectin1 (75 ng of DNA/24 well), plus or minus plasmids encoding αv + β6 or αv + β8 integrins (300 ng of DNA/24 well) or together by means of Lipofect 2000 (Life Technologies). The total amount of transfected plasmid DNA was made equal (675 ng/24 well) by the addition of Erb-2 plasmid DNA. […] Following infection, the unpenetrated virus was inactivated by means of an acid wash (40 mM citric acid, 10 mM KCl, 135 mM NaCl, pH 3),[87] and the cells were incubated for a further 16 h in the absence of the peptides or antibody. The extent of infection was assessed through EGFP expression.
Cytofluorimetric analyses were performed using an AccuriC6 flow cytometer (Becton Dickinson). A least 10 000 events were acquired for each sample. Microphotography of the inhibition experiment was conducted using a Nikon Eclipse Ni microscope.

Test [2] concerns recombinant R8102 HSV-1 strain. In words: Infection neutralization assay, 293T cells, R8102 HSV-1, β-galactosidase readout. Type of test: cell-based. The settings on record: increasing concentrations, 1 h prior to infection and 90 min during attachment. The source says:
The binding of HSV-1 gH/gL to either αvβ6 or αvβ8 results in the dissociation of gL from the heterodimer, which, in turn, can favor HSV entry into cells.[27] […] R1.302, a nectin1-neutralizing mAb, was used as a positive control. In the first set of experiments, 293T cells, expressing both the αvβ6 and αvβ8 integrins, were alternatively exposed to increasing concentrations of the integrin-binding peptides and R1.302 before and during the infection by the recombinant R8102 HSV-1 strain. This virion carries, indeed, a lacZ reporter gene under the control of the α27 promoter, whose expression analysis allows for readily quantifying the infectivity.[59] […] Remarkably, these preliminary results were in agreement with the known interchangeable and additive roles played by αvβ6 and αvβ8 integrins upon HSV-1 infection.[26]
Figure 3 Inhibition of HSV-1 infection. 293T cells were exposed to increasing concentrations of the indicated peptides for 1 h prior to infection and during virus attachment for another 90 min. Infection was induced using the recombinant R8102 HSV-1 strain and measured after 8 h as β-galactosidase activity, using o-nitrophenyl-D-galactopyranoside (ONPG) as a substrate. The assays were run in triplicate. Bars show standard deviation (SD).
The experiments were performed using 293T cells in 96-well plates with extracellular virions of R8102 at an input multiplicity of infection of 5 PFU/cell. Cells were exposed to increasing concentrations of the peptides for 1 h at 37 °C, and the viral inoculum was added in the presence of peptides for 90 min at 37 °C. After the removal of the inoculum and rinsing with DMEM containing 1% FBS, the cells were incubated without peptides for 8 h. The same protocol was followed for R1.302 mAb that was used as a positive control. The infection was quantified as β-Gal activity using o-nitrophenyl-D-galactopyranoside (ONPG) as a substrate.[86]

The next test concerns the target T1, human αvβ8 integrin (Homo sapiens, UniProt P06756+P26012).
T1 construct: purchased R&D Systems (Biotechne brand) 4135-AV
The experiment in a line: LAP(TGF-β1)-αvβ8 competitive solid-phase ELISA binding assay. Particulars: competitive ELISA, immobilized LAP, soluble integrin. Here is the method: (§1) The affinity and selectivity of the integrin peptide ligands were ascertained according to a modified method previously reported by some of us.[33],[47] The binding was determined in a competitive solid-phase binding assay using extracellular matrix proteins, soluble integrins, and pertinent integrin-specific antibodies in an enzyme-linked immunosorbent assay (ELISA).
The experimental procedure is as described for the αvβ6 assay, except for the following modifications. The plates were coated, washed, and blocked as described above. Soluble integrin αvβ8 was mixed with an equal volume of serially diluted inhibitors resulting in a final integrin concentration of 0.25 μg/mL and 0.0032–10 μM for the inhibitors. The primary and secondary antibodies are the same as in the integrin αvβ6 assay. Visualization and analysis were performed as described above. Each plate contained a linear peptide ([…]) as the internal standard.[3]
A general note: An ELISA detects its analyte on a solid surface through an enzyme-linked reagent.

Another test addresses T2, human αvβ6 integrin (Homo sapiens, UniProt P06756+P18564).
T2 construct: using immobilized ECM protein and soluble integrin; purchased R&D Systems (Biotechne brand) 3817-AV
The experiment in a line: LAP(TGF-β1)-αvβ6 competitive solid-phase ELISA binding assay. Particulars: immobilized LAP, soluble integrin. On the procedure: as §1
A flat-bottom 96-well ELISA plate was coated overnight at 4 °C with 100 μL/well of 0.4 μg/mL LAP previously diluted in carbonate buffer (15 mM Na2CO3, 35 mM NaHCO3, pH 9.6). Afterward, each well was then washed three times with 200 μL of PBS-T buffer (137 mM NaCl, 2.7 mM KCl, 10 mM Na2HPO4, 2 mM KH2PO4, 0.01% Tween 20, pH 7.4) and blocked for 1 h at room temperature with 150 μL/well TSB buffer (20 mM Tris–HCl, 150 mM NaCl, 1 mM CaCl2, 1 mM MgCl2, 1 mM MnCl2, pH 7.5, 1% BSA). Then, each well was washed three times with 200 μL of PBS-T.
Equal volumes (50 μL) of the internal standard (or test compounds) were mixed with 0.5 μg/mL human integrin αvβ6 (50 μL) giving a final dilution series in TSB buffer of 0.00064–10 μM for the inhibitors and 0.25 μg/mL for integrin αvβ6. These solutions (100 μL/well) were added to the flat-bottom ELISA plate and incubated for 1 h at room temperature. The solutions were discarded from the wells, and the plate was washed three times with PBS-T buffer (3 × 200 μL). […] The solutions were discarded from the wells, and the plate was washed three times with PBS-T (3 × 200 μL). The binding assay was developed by adding 50 μL/well of the 3,3′,5,5′-tetramethylbenzidine (TMB) liquid substrate system and incubating for 1 min at room temperature. The reaction was stopped by adding 50 μL/well of 3 M H2SO4. The peroxidase product formation was detected by measuring the absorbance at […] using a plate reader (Tecan SpectraFLUOR plus, Männedorf, Switzerland). Each compound concentration was tested in duplicate, and the resulting inhibition curves were analyzed using OriginPro 7.5G software; the inflection point describes the IC50 value. Each plate contained a linear peptide ([…]) as the internal standard.[63]

SMILES strings stand for the structures.

As to `CC(C)[C@H]1C(=O)N[C@@H](CCCNC(=N)N)C(=O)NCC(=O)N[C@@H](CC(=O)O)C(=O)N[C@H](Cc2ccccc2)C(=O)N1C` [cilengitide, reference compound], the “effect on HSV entry (in words)” value in test [1] was “no effect”. Besides, the “effect on HSV-1 infection (in words)” value in test [2] is recorded as “no alteration in the HSV entry process”.
Turning to `CN1CC(=O)N[C@@H](CC(=O)O)C(=O)N[C@@H](C2CCCCC2)C(=O)N[C@H](C(N)=O)CCC(=O)N[C@@H](CCCNC(=N)N)C1=O` [compound 3, [Arg-(NMe)Gly-Asp-Chg-Glu]-CONH2], the IC50 at human αvβ8 integrin is 3320 ± 122 nM; at human αvβ6 integrin, 211 ± 26 nM.
As for `CN1C(=O)CC[C@@H](C(N)=O)NC(=O)[C@H](C2CCCCC2)NC(=O)[C@H](CC(=O)O)NC(=O)CNC(=O)[C@@H]1CCCNC(=N)N` [compound 2, [(NMe)Arg-Gly-Asp-Chg-Glu]-CONH2], the 50% inhibitory concentration (IC50) at human αvβ8 integrin was 2250 ± 89 nM; on human αvβ6 integrin, 105 ± 8 nM.
With `CN1C(=O)[C@H](CC(=O)O)NC(=O)CNC(=O)[C@H](CCCNC(=N)N)NC(=O)CC[C@@H](C(N)=O)NC(=O)[C@@H]1C1CCCCC1` [compound 5, [Arg-Gly-Asp-(NMe)Chg-Glu]-CONH2], the half-inhibitory concentration (IC50) on human αvβ8 integrin and on human αvβ6 integrin was > 5000 nM in each case.
